Molecules are shown by their SMILES.

In series [1] the test system is conditionally-immortalized mouse podocyte cell line. Description: Podocyte cytotoxicity assay (Cell Titer-Blue). The note with it: 72 hours, up to 30 μM.
Protocol: For the purposes of these experiments, they function as an indicator of renal toxicity. Following 72 hours of treatment with each compound concentrations ranging from 30 μM to 3 nM, podocyte viability was assessed by measuring residual metabolic activity (FIG. 30).
Mouse podocytes were plated at a density of 6,000 cells per 200 μl in 96-well plates to elicit log-phase growth. The indicated PTBA analogs were added at 30 μM, 10 μM, 1 μM, 300 nM, 100 nM, 30 nM, or 3 nM and incubated at 33° C. for 72 hours. The final DMSO concentration was maintained at 0.2% in all treatments except 30 μM (0.6%). After incubation, cytotoxicity was analyzed using the Cell Titer-Blue Cell Viability Assay (Promega) per manufacturer's instructions. Reagent (20 μl) was added to 100 μl of cells and plates were incubated for 2 hours at 37° C. Fluorescence was read at 79 560Ex/590Em on a Gemini SpectramaxXS (Molecular Devices) plate reader. Viability was calculated as a percentage of the DMSO control, which was considered 100% viability. Data represent the results of three independent experiments using duplicate wells for each condition. E50 values were determined from the transformed and normalized data by non-linear regression.
Series [2] has as its system pronephros. Description: Pronephric markers at 48 hpf (cdh17, NaK-ATPase, wt1a, slc4a4, slc12a1). Format: in vivo, zebrafish. Particulars: 3 μM. As to the method: (§1) PTBA was synthesized as described below. Hydroxyurea and aphidicolin were obtained from Sigma-Aldrich.
(§2) In situ hybridization and immunocytochemistry: In situ hybridization was performed as previously described with some modifications. 142 Hybridization temperature was 65° C. Embryos were blocked in 2% blocking reagent (Roche) with 5% sheep serum in MAB (100 mM maleic acid and 150 mM NaCl [pH 7.5]). Whole-mount immunocytochemistry with 1:25 mouse anti-α6F antibody (Developmental Studies Hybridoma Bank) and 1:100 Cy3 secondary antibody (Jackson ImmunoResearch) was performed as described previously. 108 Embryos were embedded in JB-4 for sectioning per the manufacturer's instructions (Polysciences), sectioned at 5 μm, and mounted with Cytoseal 60 (Richard-Allan Scientific).

In series [3] the test system is lhx1a, pax2a, pax8, ntla transcripts. Description: Relative qPCR in the trunk region of 10-somite embryos. Format: in vivo, zebrafish. Particulars: 3 μM. The text has this: Conducted as described in WO 2012109527 and in priority U.S. provisional Patent Application No. 61/720,621.
Series [4] relates to myod1 (somites), fli1a (vasculature), ntla (notochord). Description: In situ hybridization for mesodermal markers myod1, fli1a, ntla in 10-somite embryos. Format: in vivo, zebrafish. The procedure:
as §1, §2

The test system of series [5] is human HDACs (HeLa cell nuclear extract). Description: Fluorescence histone deacetylation assay with HeLa cell nuclear extract. It counts as biochemical.
In series [6] the test system is proximal convoluted tubule cells. Description: Gentamycin-induced AKI in zebrafish larvae: renal cell proliferation (EdU). It counts as in vivo. Particulars: 4 μM added 2 days post injection of gentamicin; larvae at 5 days post injection. The procedure:
FIG. 42A is a graph showing the results of an AKI model using gentamycin-induced injury. AKI is generated as per a recent publication, Cianciolo Cosenitino, C., et al. ((2010) Intravenous microinjections of zebrafish larvae to study acute kidney injury. JoVE August 4 (42), pii: 2079. doi: 10.3791/2079). Four micromolar m4PTB (UPHD-00025) was added to the zebrafish E3 media in 0.5% DMSO at 2 days post injection of gentamicin and the larvae are scored daily for four days (6 days post injection) as alive or dead, with the final data tallied on day 6 post injection FIG. 42B.
Proliferation of renal cells was examined post AKI for m4PTB in zebrafish larvae (FIG. 43). AKI is generated as above with gentamycin, essentially as described in Example 11. Four μM m4PTB was added 2 days post injection of gentamicin. Zebrafish larvae at 5 days post injection were treated for 1 hour with the thymidine analogue EdU (10 milimolar), which incorporates into dividing (proliferating cells) while the larvae are in the zebrafish E3 media. The larvae where then fixed and processed for histology to count the number of proliferating cells in the proximal convulted tubule (as marked by the antibody 3G8). The number of proliferating cells was divided by the total number of cells in the proximal convoluted tubule to generate the percent of proliferation also known as the proliferation index as shown in FIG. 43.

The test system of series [7] is BALB/c mice, severe IR-AKI. Description: Severe ischemia-reperfusion AKI (IR-AKI). It counts as in vivo, mouse. The note with it: 7 days at 50 mg/ml starting 24 hrs after severe IR. As to the method:
Surgeries were performed on a water-bath heated platform at 38° C. on 10-12 week old male BALB/c mice. For moderate IR-AKI, mice underwent a right nephrectomy followed by left renal pedicle clamping (800 μm pressure clamp, FST 18052-03). The clamp was released after 26 minutes, and tissue reperfusion was confirmed before completing the surgery. Mice were treated daily with indicated doses of compounds or equivalent volume of 20% 2-hydroxypropyl-β-cyclodextrin in water as vehicle control starting 24 h after injury. Since initial injury with this model is variable, mice were randomly allocated vehicle or m4PTB treatment if their serum creatinine levels were 0.8 to 1.2 mg/dl 24 h post IR injury. Other mice were excluded from further analysis and euthanized. To induce severe IR-AKI, mice underwent left renal pedicle clamping for 30 minutes and delayed contralateral nephrectomy was performed after 8 days.
For mouse studies, kidney sections were stained using Periodic Acid-Schiff (PAS) to assess renal tubular injury. Tubular injury (casts, dilated tubules, epithelial cell blebbing, and vacuolization, loss of brush borders or nuclei) was scored as described. Sirius red staining was performed using an established protocol used to evaluate renal fibrosis/collagen accumulation in kidney sections. To quantify Sirius red staining we used an Olympus BX-41 microscope equipped with an Olympus DP-72 digital camera system and polarizing light filter. Results are expressed as the mean percent fibrosis for all of the images per slide region (Sirius red positive/total surface area).
We used of 2-hydroxypropyl-β-cyclodextrin (CD, Sigma), a low toxicity drug formulation vehicle that has been well characterized and used extensively as a hydrophobic drug delivery vehicle. We could achieve concentrations of up to ˜12 mg/ml of PTBA analogues in 20% CD in water (100 mg/kg in volumes of ˜150-250 μl), and daily IP injections with 200 μl 20% CD in water had no effect on renal functional recovery following IR-AKI. Therefore all studies were performed using compounds dissolved in 20% CD. To assess dosing and biological activity of PTBA analogues in mice, CD1 mice were injected with varying doses of compounds IP and kidneys isolated at different time point for histone extraction and analysis of histone H4 acetylation, a marker of HDAC inhibitor activity, as outlined below. Based on results of these studies, mice were treated daily with 1, 10, 50 or 100 mg/kg of compound or equivalent volume of 20% CD vehicle control starting 24 h after injury.
˜30 μl blood was obtained by tail vein bleed at different time points, and serum samples frozen after confirming that they had not undergone hemolysis (which interferes with enzymatic analysis for serum creatinine). Serum creatinine was evaluated in duplicate samples using a commercially available enzymatic cascade assay (Pointe Scientific, requires only ˜7 μl of serum). […] Blood Urea Nitrogen (BUN) was determined in duplicate samples using a colorimetric enzymatic assay kit (Infinity Urea, Thermo Scientific), and spot urinary albumin/creatinine ratios determined using a mouse albumin ELISA and urinary creatinine assay kit (Albuwell and Creatinine Companion, Exocell).
Compounds 22, 25, 29, 36, and 186 were injected for 7 days at […] starting 24 hrs after severe IR treatment. […] Fibrotic (scar) tissue was measured using Sirus Red after 28 days for various markers of fibrosis.

Turning to `O=C(O)CCCSc1ccccc1` [PTBA, 4-(phenylthio)butanoic acid], the “podocyte viability (% of DMSO control)” value in series [1] is listed as not below 50%. In addition, in series [2], the “embryos with expansion of cdh17” value was found to be 89%, the “expansion of slc4a4” value was 92%, the “expansion of slc12a1” value amounted to 64% and the “expansion of wt1a” value was 74%. Further, in series [3], the “increase in ntla expression (qPCR)” value is recorded as 80%, the “increase in pax8 expression (qPCR)” value came to 50%, the “lhx1a relative transcript (qPCR)” value is on record as “three-fold increase” and the “pax2a expression (qPCR)” value is given as “almost two-fold increase”. Further, in series [4] (3 μM), the “embryos with unchanged fli1a expression” value is 97%. The “embryos with decreased myod1 expression” value in series [4] (3 μM PTBA (slightly decreased), 25 μM PBA, 200 nM TSA) came out at 95%. For the same compound, the “embryos with increased ntla expression” value in series [4] (3 μM PTBA, 25 μM PBA) came out at 88%. In addition, the “HDAC activity, % of the control value” in series [5] (5 mM compound, 10 μg HeLa extract) is listed as 30%. Moreover, in series [5] (millimolar concentrations), the “reduction of HDAC activity” value is given as 70%.

Regarding `COC(=O)CCCSc1ccccc1` [UPHD-00025, methyl 4-(phenylsulfanyl) butanoate], the “renal cell proliferation (proliferation index)” value in series [6] is given as “significantly increased”. For the same compound, in series [7], the “fibrosis after 28 days (Sirus Red, markers of fibrosis)” value was “most reduction in fibrosis” and the “serum creatinine at day 9” value is recorded as “better activity”.

The values are drawn from patent US10233201B2, “Class of HDAC inhibitors expands the renal progenitor cells population and improves the rate of recovery from acute kidney injury” (University of Pittsburgh—Of the Commonwealth System of …, priority 2012, dated 2019).
